# Reference: US11911450B2, “Method for managing pain” (UNIVERSITY OF MIAMI, priority 2017, dated 2024)
# Tests used:
# [1] = molecular target: T1, ITPR1 (Homo sapiens, UniProt Q14643); assay: NGF-induced intracellular calcium release / ITPR1 activation in NBL cells; format: cell-based; parameters: endogenous in cells; conditions: NBL cells
# [2] = system: RYR-dependent calcium release; assay: 5HT-induced RYR-dependent cytoplasmic calcium release in NBL cells (Fura2 imaging); format: cell-based, human; conditions: for 5HT-induced cytoplasmic calcium release, effect of ryanodine: 50 μM 5HT
# Method: Pharmacodynamics—Bioassay of Calcium Release: Fifteen mm glass coverslips (cat #72228 Electron Microscopy Sciences, Hatfield, PA) were coated with poly-D-Lysine (Sigma) followed by Laminin and 1×10^5 cells were seeded on each coverslip. Twenty-four hrs later, cells were transfected with AAV2-ITR, AAV2-V5-Car10, or AAV2-V5-CA10 vectors as previously described. In embodiments wherein AAV2 is not employed, other expression vectors (including viral vectors) are used. Fura-2AM (cat #F1221 ThermoFisher scientific, Waltham, MA) was dissolved in DMSO (50 μg in 50 μl) and 1% pluronic acid-127 (cat #P2443 Sigma, St Louis, MO) as the stock solution. Forty eight hrs after seeding, cells were loaded with 2 μM Fura-2AM dye for 45 min at room temperature in the dark in a standard Ca+2 buffer solution containing: 125 mM NaCl, 2 mM MgCl, 4.5 mM KCl, 10 glucose, 20 mM HEPES, 2 mM CaCl2, pH 7.4.25. Following dye loading, coverslips were washed with Ca^+2 buffer solution. For imaging and ATP stimulation experiments, coverslips were placed in a recording chamber (cat #QR-42LP Warner instruments Hamden, CT) on a Leica DMI6000B microscope, and perfused at room temperature (˜22° C.) with Ca^+2 free buffer solution containing: 125 mM NaCl, 4 mM MgCl, 4.5 mM KCl, 10 mM glucose, 20 mM HEPES, pH 7.4. For the ratiometric imaging of Fura-2AM, the excitation light was filtered through an ultra high-speed wavelength switcher to provide wavelengths of 340 and 384 nm and capture by a high-speed digital camera (Leica DFC365FX). Activation of ITPR1 channels was achieved via application of 1 μM ATP (Sigma, St Louis, MO). Data acquisition and processing was made using the LAXS software. Regions of interest over the field of view were selected and the mean pixels intensity at each frame was measured. Data was plotted as ratio fluorescence intensity versus time and subsequently converted to a relative scale.
# It was also determined that 5HT-induced RYR-dependent calcium release in NBL cells is inhibited by ryanodine. […]
# [3] = system: ITPR1-mediated cytoplasmic calcium release; assay: ATP-induced cytoplasmic calcium release in HEK293 cells (Fura-2 imaging); format: cell-based, human
# Method: Cell culture and transfections: Human neuronal-derived (e.g., NBL), human non-neuronal derived (e.g., HEK293) cells, or dispersed rodent primary DRG cells can be used. HEK293 cells (cat #CRL-1573 ATCC Manassas, VA) were cultured in Dulbecco's modified Eagle's medium (DMEM-Glutamax cat #0566; Invitrogen) supplemented with 10% fetal bovine serum, FBS (cat #16140 ThermoFisher scientific, Waltham, MA) and 1% penicillin/streptomycin (cat #15140 ThermoFisher scientific, Waltham, MA). Cells were seeded in six-well plates at density of 1.0×10^5 cells per well. […]
# Pharmacodynamics—Bioassay of Calcium Release: Fifteen mm glass coverslips (cat #72228 Electron Microscopy Sciences, Hatfield, PA) were coated with poly-D-Lysine (Sigma) followed by Laminin and 1×10^5 cells were seeded on each coverslip. […] Regions of interest over the field of view were selected and the mean pixels intensity at each frame was measured. Data was plotted as ratio fluorescence intensity versus time and subsequently converted to a relative scale.
# To further examine whether FLAG-CA8-204 (data not shown), V5-Car10 and V5-CA10 overexpression can inhibit ATP-induced calcium release, HEK293 cells were infected with each if these constructs and real-time intracellular calcium concentrations at baseline and in response to ATP stimulation were measured (FIG. 2). […]
# [4] = morphine dose vs paw withdrawal latency; format: in vivo, mouse; conditions: approximately 30 minutes after intraperitoneal dosing; 10, 30, and 60 mg/kg
# Method: Behavioral tests: Thermal and mechanical sensitivity was measured by Hargreaves test and von Frey filament threshold calculations respectively. See, e.g., Boyce-Rustay et al. Methods Mol Biol. 2010; 617:41-55; Hargreaves et al., Pain. 1988; 32(1):77-88; and Chaplan et al., J Neurosci Methods. 1994; 53(1):55-63. Tests were performed in a quiet room with daylight-like illumination. Animals were habituated to the behavioral room and apparatus for at least 60 minutes for 1 week before a blinded investigator collected data. The thermal sensitivity test was performed using an IITC Plantar Analgesia Meter apparatus (IITC Life sciences, Woodland Hills, CA) with a plastic box placed on a glass plate of constant temperature (30° C.). The mouse plantar surface was exposed to a beam of radiant heat to induced paw withdrawal. Baseline latencies were adjusted to 5-9 sec with a maximum of 20 sec as cutoff to prevent potential injury. The latency time in seconds from the onset of the intense light beam to paw withdrawal was defined as the withdrawal latency of the paw. […] The mouse hind paw was pressed with one of a series of von Frey filaments with logarithmically incrementing stiffness (Stoelting Co, Wood Dale, IL) presented perpendicular to the plantar surface of each hind paw for 1-2 seconds, the 50% threshold was determined using the Up- and Down method.
# [5] = molecular target: T1, ITPR1; assay: NGF-induced intracellular calcium release in HEK293 cells; format: cell-based; parameters: endogenous in cells; host or cells: HEK293 (ATCC CRL-1573); conditions: data not shown
# T1 sequence (Q14643 whole entry): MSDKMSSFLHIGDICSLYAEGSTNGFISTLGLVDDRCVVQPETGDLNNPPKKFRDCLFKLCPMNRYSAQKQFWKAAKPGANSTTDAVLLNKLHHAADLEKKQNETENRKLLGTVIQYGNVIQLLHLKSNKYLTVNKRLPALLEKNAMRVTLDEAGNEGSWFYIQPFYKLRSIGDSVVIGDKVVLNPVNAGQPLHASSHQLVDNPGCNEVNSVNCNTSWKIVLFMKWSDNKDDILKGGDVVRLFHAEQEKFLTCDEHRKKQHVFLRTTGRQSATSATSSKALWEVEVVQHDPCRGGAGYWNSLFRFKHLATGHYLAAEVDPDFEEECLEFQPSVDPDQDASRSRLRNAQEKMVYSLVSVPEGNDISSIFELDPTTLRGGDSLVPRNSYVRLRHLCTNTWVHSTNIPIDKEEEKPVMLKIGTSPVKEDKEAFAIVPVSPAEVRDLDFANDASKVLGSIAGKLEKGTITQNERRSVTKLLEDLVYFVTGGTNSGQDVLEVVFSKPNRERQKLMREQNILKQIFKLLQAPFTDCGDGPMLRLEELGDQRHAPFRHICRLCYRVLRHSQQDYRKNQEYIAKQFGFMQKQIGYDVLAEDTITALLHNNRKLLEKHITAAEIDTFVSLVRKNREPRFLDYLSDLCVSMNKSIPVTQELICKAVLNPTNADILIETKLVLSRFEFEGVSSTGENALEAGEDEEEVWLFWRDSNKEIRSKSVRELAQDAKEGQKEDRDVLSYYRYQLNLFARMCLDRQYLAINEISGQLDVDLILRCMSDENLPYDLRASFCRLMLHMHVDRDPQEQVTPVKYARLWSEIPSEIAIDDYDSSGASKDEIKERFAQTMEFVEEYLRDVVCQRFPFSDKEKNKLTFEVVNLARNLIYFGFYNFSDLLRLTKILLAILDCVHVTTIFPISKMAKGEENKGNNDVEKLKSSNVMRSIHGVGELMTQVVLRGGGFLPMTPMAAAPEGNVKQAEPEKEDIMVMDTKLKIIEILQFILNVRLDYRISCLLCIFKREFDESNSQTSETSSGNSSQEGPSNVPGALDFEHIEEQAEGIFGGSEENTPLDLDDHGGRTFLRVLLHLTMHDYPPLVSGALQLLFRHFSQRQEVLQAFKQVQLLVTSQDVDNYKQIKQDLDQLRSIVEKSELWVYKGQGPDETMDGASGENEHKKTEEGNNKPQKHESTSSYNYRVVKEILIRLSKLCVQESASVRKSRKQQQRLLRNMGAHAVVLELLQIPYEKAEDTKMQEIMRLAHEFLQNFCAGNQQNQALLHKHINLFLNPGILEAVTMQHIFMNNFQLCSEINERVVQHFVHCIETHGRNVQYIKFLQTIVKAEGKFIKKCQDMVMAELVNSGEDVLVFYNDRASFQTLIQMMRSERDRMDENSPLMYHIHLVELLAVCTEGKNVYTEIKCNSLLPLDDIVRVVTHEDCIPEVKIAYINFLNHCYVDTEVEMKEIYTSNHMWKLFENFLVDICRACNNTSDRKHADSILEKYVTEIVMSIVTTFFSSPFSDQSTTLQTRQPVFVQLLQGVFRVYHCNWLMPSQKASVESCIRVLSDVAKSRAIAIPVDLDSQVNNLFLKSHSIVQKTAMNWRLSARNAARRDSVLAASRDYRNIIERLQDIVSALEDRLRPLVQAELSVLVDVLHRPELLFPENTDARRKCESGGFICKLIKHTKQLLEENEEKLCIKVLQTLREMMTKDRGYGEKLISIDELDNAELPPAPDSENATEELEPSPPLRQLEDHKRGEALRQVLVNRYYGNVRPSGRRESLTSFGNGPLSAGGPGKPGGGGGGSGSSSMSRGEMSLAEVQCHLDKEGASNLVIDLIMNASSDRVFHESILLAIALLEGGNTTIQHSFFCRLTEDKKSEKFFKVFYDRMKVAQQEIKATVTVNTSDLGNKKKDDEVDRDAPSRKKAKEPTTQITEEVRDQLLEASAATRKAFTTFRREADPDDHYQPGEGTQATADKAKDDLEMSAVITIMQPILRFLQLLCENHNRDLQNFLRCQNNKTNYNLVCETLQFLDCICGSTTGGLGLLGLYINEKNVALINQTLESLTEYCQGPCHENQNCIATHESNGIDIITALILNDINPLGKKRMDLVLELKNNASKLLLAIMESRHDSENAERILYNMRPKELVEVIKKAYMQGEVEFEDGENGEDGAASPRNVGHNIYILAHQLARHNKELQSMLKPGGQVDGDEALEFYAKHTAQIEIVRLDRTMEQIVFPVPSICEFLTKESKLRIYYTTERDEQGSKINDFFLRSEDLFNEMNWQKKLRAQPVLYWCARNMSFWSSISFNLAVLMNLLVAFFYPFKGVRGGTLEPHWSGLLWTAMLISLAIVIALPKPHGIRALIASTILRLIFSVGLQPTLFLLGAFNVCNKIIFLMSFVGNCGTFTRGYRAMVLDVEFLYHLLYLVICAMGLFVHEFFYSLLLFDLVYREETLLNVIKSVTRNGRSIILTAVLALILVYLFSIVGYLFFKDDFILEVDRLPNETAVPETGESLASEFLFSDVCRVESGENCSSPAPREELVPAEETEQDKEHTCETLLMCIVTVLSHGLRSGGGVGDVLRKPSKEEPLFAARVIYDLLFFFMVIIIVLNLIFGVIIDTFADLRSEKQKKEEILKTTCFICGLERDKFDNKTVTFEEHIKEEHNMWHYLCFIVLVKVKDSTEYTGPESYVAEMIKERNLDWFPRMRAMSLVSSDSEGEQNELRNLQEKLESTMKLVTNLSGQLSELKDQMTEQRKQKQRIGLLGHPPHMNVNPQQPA
compound,measurement,setting,value
"NCCOB(c1ccccc1)c1ccccc1 [2-APB, reference compound]",NGF-induced intracellular calcium release,[1],nearly completely inhibited
"NCCc1c[nH]c2ccc(O)cc12 [5HT, reference compound]",effect of 5HT on calcium release,[2],stimulates calcium release
"Nc1ncnc2c1ncn2[C@@H]1O[C@H](COP(=O)(O)OP(=O)(O)OP(=O)(O)O)[C@@H](O)[C@H]1O [ATP, reference compound]",effect of ATP on cytosolic free calcium,[3],stimulated calcium release and an increase in cytosolic free calcium levels in a dose-dependent manner
"CN1CC[C@]23c4c5ccc(O)c4O[C@H]2[C@@H](O)C=C[C@H]3[C@H]1C5 [morphine, reference compound]",paw withdrawal latency,[4],Elevations were significant when compared with saline
"NGF: nerve growth factor, stimulant of calcium release",effect of NGF on intracellular calcium release,[5],increased intracellular calcium release
ryanodine [reference compound],"5HT-induced cytoplasmic calcium release, effect of ryanodine",[2]; 10 nM ryanodine,nearly completely inhibited
same,"5HT-induced cytoplasmic calcium release, effect of ryanodine","[2]; dose-dependent, vs vehicle",significantly inhibited
